Source: patent US8048924B2, “Methods and compositions employing 4-aminophenylacetic acid compounds” (Biocon Limited, priority 2001, dated 2011)

Columns and labels:
[1] = tested on: Clostridium difficile toxin A-induced colitis; assay: Toxin A-induced colitis, chronic oral administration in drinking water for 5 days; assay type: in vivo, Sprague-Dawley rats
Method: Eighteen adult male Sprague-Dawley rats weighing 175-222 grams were divided into 3 groups each consisting of 6 animals: • 4-APAA (AA-002) 100 mg/kg orally+Toxin A (10 μg) injected into the lumen of the colon • Vehicle (DW) orally+Toxin A (10 μg) injected into the lumen of the colon • Vehicle (DW) orally
Following 5 days of 4-APAA administration in drinking water, both ketamine (67 mg/kg) and xylazine (33 mg/kg) were administered, an isolated colonic segment was surgically created, and 10 μg of Clostridium difficile toxin A was injected into the lumen of the colon. After 3 hours, the rats were euthanized and colonic inflammation was assessed by quantitating luminal fluid accumulation and myeloperoxidase (MPO) content in the colon tissue. In addition, histological evaluation of the treated colon segments was completed.
Drug Administration. In studies using chronic administration, sulfasalazine, APAZA™, and 4-APAA were administered in the drinking water at doses ranging from 0.1-100 mg/kg·d for 5 days. Sulfasalazine and APAZA™ were initially dissolved in 0.1 N NaOH at 30 times the desired final concentration and then the pH was adjusted to 8.5 with 1 N HCl and the solution was diluted 30-fold with distilled water. 4-APAA was dissolved in water. On the fifth day, the rats were fasted overnight (with access to their drinking water±sulfasalazine, APAZA™, or 4-APAA ad lib), anesthetized, and isolated colonic segments were surgically created as described below. In studies using acute administration, the rats were pretreated by injection of 4-APAA at doses of 10 or 100 μg in 200 μl of PBS (pH 7.4) into the lumen of the colonic segment using a 27 ga syringe needle. Toxin A (10 μg) in 200 μl of PBS (pH 7.4) was tested alone or injected into the lumen of the colonic segment 30 minutes after 4-APAA using a 27 ga syringe needle.
Surgery. Isolated colonic segments were created in male Sprague-Dawley rats (150-175 g) as described previously for isolated ileal segments (see, Gastroenterol. 111: 1272-1280 (1996) and Proc. Natl. Acad. Sci. USA 91: 947-951 (1994). Rats fasted overnight with free access to drinking water were anesthetized by intramuscular injection of 67 mg/kg ketamine:33 mg/kg xylazine. A midline abdominal incision was made and colonic segments 5 cm in length were created by ligation with 4-0 silk sutures, taking care not to disturb the vascular supply. Toxin A (10 μg) in 400 μl of PBS (pH 7.4) was injected into the lumen of the colonic segment using a 27 ga syringe needle. Control rats were prepared similarly and their colonic segments were injected with the vehicles. The midline incision was then closed with a running suture, and the rats were placed on a heating pad at 37° C. for 3 hours. After 3 hours, the rats were euthanized and samples of the treated colonic segments were taken for analysis in vitro.
Histopathology. The severity of colonic histological damage was assessed using formalin-fixed, paraffin-embedded, H&E-stained sections.
Luminal Fluid Accumulation. Luminal fluid accumulation was measured gravimetrically. After 3 hours of treatment, the isolated colonic segments were removed, weighed, and their lengths were measured. Luminal fluid accumulation is expressed as mg wet weight per cm length.
Myeloperoxidase Activity. Myeloperoxidase (MPO) activity was measured as described previously (see, J. Invest. Dermatol. 78: 206-209 (1982)). Briefly, pieces of control and treated colonic segments were homogenized in 0.5% hexadecyltrimethylammonium bromide in 50 mM KH2PO4 (pH 6), freeze/thawed three times, centrifuged at 4° C. for 2 minutes, and then the absorbance of each supernatant was read at 460 nm at 0, 30, and 60 seconds after the addition of 2.9 ml of o-dianisidine dihydrochloride to 0.1 ml supernatant. The maximal change in absorbance per minute was used to calculate the units of MPO activity based on the molar absorbency index of oxidized o-dianisidine of 1.13×10^4 M^−1 cm^−1. […]

[2] = tested on: DNBS colitis; assay: Study AA-PH-003: oral and rectal APAZA and sulfasalazine in DNBS colitis; assay type: in vivo, male Lewis rats; parameters: Average Diarrhea Score Day 3: scale not given here; settings: for Colonic Inflammation Scores: scale 0-2
Method: Study AA-PH-003 was designed to evaluate the anti-inflammatory efficacy of oral and rectal doses of APAZATM and sulfasalazine in the DNBS colitis model in rats. […] Thirty-five adult male Lewis rats (body weight 200-250 g) were studied. […] Animal body weights and incidence of diarrhea were recorded daily. […] Animals in the DNBS groups and the parallel deionized water group were sacrificed on day 5. Laparotomies and colectomies were performed and animals were scored for the presence and severity of intestinal adhesions, strictures, inflammation, and ulceration. Colon: body weight ratios were determined and colon histopathology was performed.

[3] = tested on: DSS induced colitis; assay: Dextran sulfate sodium (DSS) colitis in the rat; assay type: in vivo, Sprague-Dawley rats; settings: oral gavage bid
Method: The effectiveness of APAZA™ and sulfasalazine in ameliorating intestinal inflammation in a model of dextran sulfate sodium (DSS) induced colitis in Sprague-Dawley rats was determined. Thirty-six male Sprague-Dawley rats that were 7-8 weeks old and weighed 240-260 g were studied. […] After completion of the treatment period, rats were euthanized and the efficacy of the test drugs in inhibiting colitis was assessed by the following: • Disease Activity Index Scoring: • Body weight • Colon wet weight: body weight ratios • Colonic Myeloperoxidase (MPO) activity • Histopathological changes of the colon

[4] = Single oral dose plasma pharmacokinetics and elimination of APAZA and metabolites in mice; assay type: in vivo, male CD-1 mice; settings: single oral dose of APAZA, male CD-1 mice
Method: Initial single dose pharmacokinetic studies with the APAZA™ compound have been conducted in dogs and mice. A study was completed in order to determine the plasma pharmacokinetics and elimination of the APAZA™ compound and its metabolites (5-ASA, 4-APAA, 5-aceASA and 4-aceAPAA) following single oral dose administration to male CD-1 mice. […] When normalized to molar values, the Cmax values for all the APAZA™ metabolites were less than APAZA™; the values ranged from 2.68 to 13.8 μM. However, the normalized APAZA™ AUC∞ value was not greater than all the other metabolites; these values ranged from […]. […] The Tmax values for APAZA™ and its metabolites were 1 hour and 4 hours, respectively.

[5] = 100 mg/kg·day in drinking water, 5 days
[6] = 100 mg/kg·day in drinking water, 5 days, toxin A 10 μg
[7] = orally + 30 mg DNBS, APAZA 200 mg/kg, sulfasalazine 265.6 mg/kg
[8] = rectally + 30 mg DNBS, APAZA 200 mg/kg, sulfasalazine 265.6 mg/kg
[9] = 1 mg/kg·day in drinking water, 5 days
[10] = 10 mg/kg·day in drinking water, 5 days

SMILES: O=C(O)Cc1ccc(/N=N/c2ccc(CC(=O)O)cc2)cc1 [4-APAA dimer, [4-(4-Carboxymethyl-phenylazo)-phenyl]-acetic acid]
- toxin A-induced MPO activity, significance of inhibition [1, 5]: significantly inhibited
- toxin A-induced luminal fluid accumulation, significance of inhibition [1, 5]: did not inhibit
- toxin A-induced structural damage of the colon (H&E) [1, 5]: did not inhibit
- percent inhibition of toxin A-induced MPO activity [1, 6]: 60±9%
- percent inhibition of toxin A-induced luminal fluid accumulation [1, 6]: 21±8%

SMILES: O=C(O)c1cc(/N=N/c2ccc(S(=O)(=O)Nc3ccccn3)cc2)ccc1O [sulfasalazine, reference compound]
- reduction relative to control in net colon: body weight (% BW) ratio ([2]; oral groups): 38.4%
- Average Diarrhea Score Day 3 [2, 7]: 2.4
- Colon Histopathology (# severe lesions) [2, 7]: 8
- Length of Colonic Inflammation (cm) [2, 7]: 2.3 cm
- Mean Body Weight [2, 7]: 215.4 g
- Mean Colon Length (cm) [2, 7]: 12.9 cm
- Net Colon: Body Weight Ratio [2, 7]: 0.1862
- Colonic Inflammation Scores [2, 7]: 1.4
- Average Diarrhea Score Day 3 [2, 8]: 2
- Length of Colonic Inflammation (cm) [2, 8]: 1.8 cm
- Mean Body Weight [2, 8]: 217.0 g
- Mean Colon Length (cm) [2, 8]: 12.8 cm
- Net Colon: Body Weight Ratio [2, 8]: 0.179
- Colonic Inflammation Scores [2, 8]: 1
- toxin A-induced MPO activity, significance of inhibition [1, 9]: did not significantly inhibit
- toxin A-induced luminal fluid accumulation, significance of inhibition [1, 9]: did not significantly inhibit
- toxin A-induced structural damage of the colon (H&E) [1, 9]: little effect
- toxin A-induced luminal fluid accumulation, significance of inhibition [1, 10]: significantly inhibited
- toxin A-induced structural damage of the colon (H&E) [1, 10]: little effect
- toxin A-induced MPO activity, significance of inhibition [1, 5]: significantly inhibited
- toxin A-induced luminal fluid accumulation, significance of inhibition [1, 5]: significantly inhibited
- toxin A-induced structural damage of the colon (H&E) [1, 5]: did inhibit
- doses that significantly inhibited toxin A-induced colitis ([1]; chronically for 5 days in drinking water, doses tested 1-100): 100 mg/kg·day
- body weights, rats drinking DW versus DSS ([3]; days 10 and 11): statistically significant differences
- colon wet weight: body weight ratio, DSS versus DW ([3]; APAZA 100 mg/kg, sulfasalazine 133 mg/kg): increased
- Disease Activity Index (DAI) score ([3]; rats drinking 5% DSS, APAZA 100 mg/kg, sulfasalazine 133 mg/kg): significantly greater
- colonic MPO activity ([3]; rats receiving DSS): significant increase
- histological changes of the colon ([3]; rats receiving DSS): severe colitis

SMILES: CC(=O)Nc1ccc(CC(=O)O)cc1 [4-aceAPAA, (4-acetylamino-phenyl)-acetic acid, reference compound]
- plasma concentration at 24 hours [4]: below the limit of detection

SMILES: CC(=O)Nc1ccc(O)c(C(=O)O)c1 [acetylated 5-ASA]
- t1/2 ([4]; plasma): 11.27 h
- plasma concentration at 24 hours [4]: below the limit of detection
